Assay results: PubChem BioAssay (NCI)
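Values below derive from 48-hour exposures of cells grown in 96-well plates, with endpoints linearly interpolated between the two concentrations bracketing the appropriate inhibition level. At the TGI there is no net growth.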

Key:
Assay in all cases: NCI-60 cell line screen, 48 h
UO-31 renal = tested on: UO-31 renal
UACC-62 melanoma = tested on: UACC-62 melanoma
IGROV1 ovarian = tested on: IGROV1 ovarian
ACHN renal = tested on: ACHN renal
786-0 renal = tested on: 786-0 renal
MOLT-4 leukemia = tested on: MOLT-4 leukemia
SK-MEL-2 melanoma = tested on: SK-MEL-2 melanoma
LOX IMVI melanoma = tested on: LOX IMVI melanoma
CAKI-1 renal = tested on: CAKI-1 renal
MDA-MB-231 breast = tested on: MDA-MB-231 breast
PC-3 prostate = tested on: PC-3 prostate
HCT-15 colon = tested on: HCT-15 colon

Row | Compound | TGI (UO-31 renal) [µM] | TGI (UACC-62 melanoma) [µM] | TGI (IGROV1 ovarian) [µM] | TGI (ACHN renal) [µM] | TGI (786-0 renal) [µM] | TGI (MOLT-4 leukemia) [µM] | TGI (SK-MEL-2 melanoma) [µM] | TGI (LOX IMVI melanoma) [µM] | TGI (CAKI-1 renal) [µM] | TGI (MDA-MB-231 breast) [µM] | TGI (PC-3 prostate) [µM] | TGI (HCT-15 colon) [µM]
1 | COc1ccc(NC2Oc3cc4c(cc3C(c3cc(OC)c(OC)c(OC)c3)C2C)OCO4)cc1 (stereo not drawn) | 22.1 | > 100 | > 100 | > 38.5 | > 81.1 | > 100 | > 100 | > 100 | > 91.5 | > 57.4 | > 100 | –
2 | Cc1cc2cccc(Cl)c2nc1C(=O)c1ccccc1 | > 100 | > 100 | > 100 | > 100 | – | – | > 100 | > 100 | > 100 | – | – | > 100
3 | Cc1cc(O)cc(O)c1N=Nc1ccc([N+](=O)[O-])cc1 | 83.8 | 32.2 | 66.3 | 94.9 | – | 17.3 | 75.4 | 84.8 | 38.9 | 47.4 | > 100 | 28.9
4 | CCN(CCCN(CC)C(=O)N[C@@H](Cc1ccccc1)C(=O)NC)C(=O)N[C@@H](Cc1ccccc1)C(=O)NC | > 100 | > 100 | – | > 100 | > 100 | – | > 100 | > 100 | > 100 | > 100 | > 100 | > 100
5 | CC(=O)/C(=C/n1c(=S)sc2ccccc21)C(=O)Nc1ccccc1C | > 100 | > 100 | > 100 | > 100 | > 100 | > 100 | > 100 | > 100 | > 100 | > 100 | – | > 100
6 | CSc1c(C(=O)Nc2ccc(C)cc2)c(N)[nH]c(=O)c1C#N | > 100 | > 100 | – | – | > 100 | > 100 | > 100 | > 100 | > 100 | > 100 | > 100 | > 100
7 | CC(=O)CC(=O)c1cc2c(=O)oc(C)cc2oc1=O | > 37.5 | > 37.5 | > 37.5 | > 37.5 | > 37.5 | > 37.5 | > 37.5 | – | > 37.5 | – | > 37.5 | > 37.5
8 | CN1CCN(C(=S)N(C)C(=O)c2ccc(Cl)cc2)CC1 | > 100 | > 100 | > 100 | > 100 | > 100 | > 100 | > 100 | > 100 | – | > 100 | – | > 100
9 | CC1CC(C#N)=C2NCCCCN2C1=O (stereo not drawn) | > 100 | > 100 | > 100 | – | > 100 | > 100 | > 100 | > 100 | > 100 | > 100 | > 100 | > 100
10 | Nc1ncnc2c1ncn2C(=O)NC12CC3CC(CC(C3)C1)C2 | > 100 | > 100 | – | > 100 | > 100 | > 100 | > 100 | > 100 | > 100 | > 100 | > 100 | > 100
